Measured values reported in patent US20240317735A1, “HYDROISOQUINOLINE OR HYDRONAPHTHYRIDINE COMPOUNDS FOR THE TREATMENT OF AUTOIMMUNE DISEASE” (Hoffmann-La Roche Inc., priority 2020, published 2024).

Experiments:
[1] = Human microsome stability assay; type: in vitro ADME; settings: for Clearance of Human microsome: 1 μM test compound, 0.5 mg/mL liver microsomal protein, 37° C., pH 7.4; for human liver microsome stability (in words): qualitative statement
Method: The human microsomal stability assay is used for early assessment of metabolic stability of a test compound in human liver microsomes.
Human liver microsomes (Cat. NO.: 452117, Corning, USA; Cat. NO.: H2610, Xenotech, USA) were preincubated with test compound for 10 minutes at 37° C. in 100 mM potassium phosphate buffer, pH 7.4. The reactions were initiated by adding NADPH regenerating system. The final incubation mixtures contained 1 μM test compound, 0.5 mg/mL liver microsomal protein, 1 mM MgCl2, 1 mM NADP, 1 unit/mL isocitric dehydrogenase and 6 mM isocitric acid in 100 mM potassium phosphate buffer, pH 7.4. After incubation times of 0, 3, 6, 9, 15 and 30 minutes at 37° C., 300 μL of cold acetonitrile (including internal standard) was added to 100 μL incubation mixture to terminate the reaction. Following precipitation and centrifugation, the amount of compound remaining in the samples were determined by LC-MS/MS. Controls of no NADPH regenerating system at zero and 30 minutes were also prepared and analyzed.

[2] = target: T1, TLR9 (Homo sapiens, UniProt Q9NR96); settings: qualitative statement on compounds of WO2018047081; cited from earlier work
T1 sequence (Q9NR96 26-1032): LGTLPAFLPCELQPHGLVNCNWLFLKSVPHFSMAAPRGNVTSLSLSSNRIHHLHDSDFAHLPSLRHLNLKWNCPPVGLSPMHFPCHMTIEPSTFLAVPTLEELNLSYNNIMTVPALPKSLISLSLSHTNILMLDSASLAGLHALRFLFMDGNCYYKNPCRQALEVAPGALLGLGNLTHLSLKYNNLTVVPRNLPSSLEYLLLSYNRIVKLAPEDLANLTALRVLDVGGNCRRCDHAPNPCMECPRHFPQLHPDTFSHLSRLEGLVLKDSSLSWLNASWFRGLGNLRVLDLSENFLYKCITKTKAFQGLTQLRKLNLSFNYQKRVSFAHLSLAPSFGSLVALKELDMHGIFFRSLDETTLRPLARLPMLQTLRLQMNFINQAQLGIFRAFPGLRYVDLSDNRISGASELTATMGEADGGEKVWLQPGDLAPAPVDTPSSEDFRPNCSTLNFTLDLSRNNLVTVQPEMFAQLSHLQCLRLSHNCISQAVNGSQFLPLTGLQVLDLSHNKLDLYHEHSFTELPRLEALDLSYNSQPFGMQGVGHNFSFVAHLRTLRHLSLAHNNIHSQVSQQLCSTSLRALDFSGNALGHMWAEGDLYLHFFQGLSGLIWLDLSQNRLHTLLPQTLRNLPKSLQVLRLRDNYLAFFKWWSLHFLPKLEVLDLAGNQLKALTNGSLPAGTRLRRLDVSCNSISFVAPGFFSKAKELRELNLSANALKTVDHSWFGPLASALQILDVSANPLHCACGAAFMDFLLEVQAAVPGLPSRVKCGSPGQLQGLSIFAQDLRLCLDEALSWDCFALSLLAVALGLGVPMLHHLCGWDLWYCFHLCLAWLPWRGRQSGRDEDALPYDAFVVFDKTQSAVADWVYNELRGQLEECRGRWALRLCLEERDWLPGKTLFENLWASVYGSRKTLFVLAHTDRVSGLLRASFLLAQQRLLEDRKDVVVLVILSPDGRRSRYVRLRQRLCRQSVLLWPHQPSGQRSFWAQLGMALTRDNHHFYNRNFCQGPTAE

Compound | Clearance of Human microsome [1] [mL/min/kg] | human liver microsome stability (in words) [1] | TLR9 activity (in words) [2]
Cc1cc(N2CCc3c(c(C)nn3CC34CCC(N(C)C5CCC5)(CC3)CC4)C2)c2cnn(C)c2n1 [Example N79, reference compound] | 18.2 | poor human liver microsome stability | best TLR9 activity
C[C@H]1CN(c2ccnc3c2cnn3C)Cc2ccc(N3C[C@@H](N)[C@](C)(O)C3)cc21 [Example 36, (3R,4R)-4-amino-3-methyl-1-[(4R)-4-methyl-2-(1-methylpyrazolo[3,4-b]pyridin-4-yl)-3,4-dihydro-1H-isoquinolin-6-yl]pyrrolidin-3-ol] | 6.2 |  | 
Cc1cc(N2CCc3c(c(C)nn3CC34CCC(NC(=O)[C@@H]5COCCN5)(CC3)CC4)C2)c2cnn(C)c2n1 [Example N8, reference compound] | 16.3 | poor human liver microsome stability | much lower TLR9 activity
C[C@H]1CN(c2ccnc3c2cnn3C)Cc2ccc(N3CC[N+](C)(C)CC3)cc21.[Cl-] [Example 39, (4R)-6-(4,4-dimethylpiperazin-4-ium-1-yl)-4-methyl-2-(1-methylpyrazolo[3,4-b]pyridin-4-yl)-3,4-dihydro-1H-isoquinoline chloride] | 6.2 |  | 
